The text below walks through data of US12673120B2, “Fluorescently-traceable amino acid derivative and preparation methods and use thereof” (priority 2020, dated 2026).

In data set [1] the test system is HCT116 (human colon cancer cells). In words: In vitro anti-tumor cell proliferation activity (MTT method), HCT116. It is filed as cell-based. The conditions noted are these: read-out: IC50 values of in vitro anti-cell proliferation activity.
Description: (§1) Tested cell lines S180 (mouse ascites tumor cells), LLC (mouse lung cancer cells), A549 (human non-small cell lung cancer cells), HCT116 (human colon cancer cells), U2Os (human osteosarcoma cells), and MCF-7 (human breast cancer cells) each were purchased from Nanjing KeyGen Biotech.
(§2) When preparing a test sample, the test compound was prepared into a sample solution with a concentration of 500 μM (with a final concentration 100 μM) by a PBS buffer containing 0.5% DMSO, which was used for preliminary screening of an anti-cell proliferation experiment in vitro.
(§3) Positive control group: doxorubicin, prepared to a required concentration with PBS buffer containing 0.5% DMSO; negative control group: a PBS buffer containing 0.5% DMSO; blank group: a PBS buffer containing 0.01% DMSO.
For a further data set, the system named is mouse S180 sarcoma model. Description: Inhibition of tumor growth in vivo (mouse S180 sarcoma model). To be noted: for Average tumor weight: Mean ± SD, n 10. Set-up: species or system male ICR mice. As for the experimental part:
The mice used in the experiment were male ICR mice of SPF grade, weighing 20 g±2 g, purchased from Beijing Vital River Laboratory Animal Technology Co., Ltd., and raised in an animal barrier of the Experimental Animal Department of Capital Medical University.
The specific method included: drugs were administered to tumor-forming mice by group for 7 consecutive days, a length of the tumor was measured every other day to calculate a tumor volume. 24 h after the last administration, the mice were weighed, anesthetized with diethyl ether, and eyeballs were removed to collect blood; the obtained whole blood was centrifuged at 1,000 rpm for 10 min, and a serum was absorbed for later use. The mice were sacrificed by neck dislocation, and the tumor mass and various organs were stripped and weighed (it was ensured that the operation was done as soon as possible and the stripping was complete and clean). The tumor inhibition rate was calculated by formula b, the results were shown in Table 2 and FIG. 2; and by calculating a viscera-weight ratio of each organ, and it was analyzed whether the test compound had obvious physiological effects on the mouse organs.

Data set [2] has as its system S180 (mouse ascites tumor cells). In words: In vitro anti-tumor cell proliferation activity (MTT method), S180. Format: cell-based. The conditions noted are these: read-out: IC50 values of in vitro anti-cell proliferation activity. (In general: Tetrazolium dyes change colour on reduction, which living cells bring about.)
Description: as §1, §2, §3
Data set [3] relates to MCF-7 (human breast cancer cells). In words: In vitro anti-tumor cell proliferation activity (MTT method), MCF-7. It is filed as cell-based. The conditions noted are these: read-out: IC50 values of in vitro anti-cell proliferation activity.
Description: as §1, §2, §3
The subject of data set [4] is LLC (mouse lung cancer cells). In words: In vitro anti-tumor cell proliferation activity (MTT method), LLC. Format: cell-based. To be noted: 48 h, read-out: IC50 values of in vitro anti-cell proliferation activity.
Description: as §1, §2, §3
Data set [5] has as its system A549 (human non-small cell lung cancer cells). In words: In vitro anti-tumor cell proliferation activity (MTT method), A549. It is filed as cell-based. To be noted: read-out: IC50 values of in vitro anti-cell proliferation activity.
Description: as §1, §2, §3
The test system of data set [6] is U2Os (human osteosarcoma cells). In words: In vitro anti-tumor cell proliferation activity (MTT method), U2Os. Format: cell-based. To be noted: 48 h, read-out: IC50 values of in vitro anti-cell proliferation activity.
Description: as §1, §2, §3
The next data set in a line: Water solubility. Format: physicochemical. To be noted: decides the injection route.
Data set [7] in a line: Nanomorphology characterization and stability (TEM, SEM, hydration particle size, Zeta potential). Format: physicochemical. The source says: The nanomorphology of compounds ZD-B and ZD-E-1 were studied by TEM and SEM, and hydration particle size and Zeta potential of the two compounds in a solution were studied by a nanometer particle size analyzer. The results were shown in FIG. 1A-H. In FIG. 1A-H, FIG. 1A was a TEM image of the compound ZD-B; FIG. 1B was a TEM image of the compound ZD-E-1; FIG. 1C was a SEM image of the compound ZD-B; FIG. 1D was a SEM image of the compound ZD-E-1; FIG. 1E was a hydration particle size change curve of the compound ZD-B in solutions at different pH values within 72 h (0.5 h, 24 h, 48 h, and 72 h); FIG. 1F was a hydration particle size change curve of the compound ZD-E-1 in solutions at different pH solutions within 72 h; FIG. 1G was a Zeta potential change curve of the compound ZD-B in solutions at different pH values within 72 h; and FIG. 1H was a Zeta potential change curve of the compound ZD-E-1 in solutions at different pH values within 72 h.

Where [8] appears, read: Table 2, 2 μmol/kg, ip, 7 consecutive days.
The mark [9] stands for this setting: Table 2, 10 μmol/kg, ip, 7 consecutive days.

Structures are written as SMILES. Structures can show the parent of a compound that is named as a salt. Where two headings read alike, the source gives them in different places.

Take `COc1cccc2c1C(=O)c1c(O)c3c(c(O)c1C2=O)C[C@@](O)(C(=O)CO)C[C@@H]3O[C@H]1C[C@H](N)[C@H](O)[C@H](C)O1` [DOX, doxorubicin, reference compound]: the IC50 in data set [1] (Homo sapiens, HCT-116, HCT116, 48 h, Mean ± SD) turned out to be 0.375 ± 0.108 µM; in data set [2] (Mus musculus, S-180, S180, 48 h, Mean ± SD), 0.49 ± 0.092 µM; in [3] (Homo sapiens, MCF7, MCF-7, 48 h, Mean ± SD) it was 1.03 ± 0.188 µM; in [4] (Mus musculus, LLC, Mean ± SD), 0.19 ± 0.095 µM; in data set [5] (Homo sapiens, A549, 48 h, Mean ± SD), 0.229 ± 0.052 µM; in [6] (Homo sapiens, U2Os, Mean ± SD), 1.2 ± 0.034 µM. The same molecule yielded a Tumor Inhibition Rate in the data set on mouse S180 sarcoma model (setting [8]) of 51.80%. The molecule further gave an Average tumor weight in the data set on mouse S180 sarcoma model (setting [8]) of 0.861 ± 0.462 g.

Regarding `NCCC[C@H](Nc1ccc([N+](=O)[O-])c2nonc12)C(=O)NCc1ccccc1` [ZD-E, (S)-5-amino-N-benzyl-2-((7-nitro-2,1,3-benzoxadiazol-4-yl)amino)pentaneamide], the IC50 in data set [1] (Homo sapiens, HCT-116, 48 h) is 49.7 ± 4.17 µM; in [2] (Mus musculus, S-180, 48 h), 66 ± 2.61 µM; in data set [3] (Homo sapiens, MCF7, 48 h), 85.2 ± 6.1 µM; in data set [4] (Mus musculus), greater than 100 µM; in data set [5] (Homo sapiens, A549, 48 h) it was greater than 100 µM; in data set [6] (Homo sapiens, U2OS), 60.5 ± 0.969 µM. The same molecule registered a Tumor Inhibition Rate with mouse S180 sarcoma model (setting [9]) of 25.82%. This molecule also registered an Average tumor weight in the data set with mouse S180 sarcoma model (setting [9]) of 1.326 ± 0.685 g.

As to `N=C(NCCC[C@H](Nc1ccc([N+](=O)[O-])c2nonc12)C(=O)OCc1ccccc1)N[N+](=O)[O-]` [ZD-A, NBD-Arg(NO2)-OBzl], the IC50 in [1] (Homo sapiens, HCT-116, 48 h) is greater than 100 µM; in data set [2] (Mus musculus, S-180, 48 h) it was greater than 100 µM; in data set [3] (Homo sapiens, MCF7, 48 h), greater than 100 µM; in data set [4] (Mus musculus), greater than 100 µM; in [5] (Homo sapiens, A549, 48 h), greater than 100 µM; in [6] (Homo sapiens, U2OS), greater than 100 µM. Moreover, in the data set on mouse S180 sarcoma model (10 μmol/kg, ip), the “Average tumor weight compared with Vehicle group (one-way analysis of variance)” value is given as “different from that of Vehicle group”. The Tumor Inhibition Rate stood at 36.19% with mouse S180 sarcoma model (setting [9]); 23.36% in the data set on mouse S180 sarcoma model (Table 3, 2 μmol/kg, ip); 28.20% with mouse S180 sarcoma model (Table 3, 5 μmol/kg, ip); 29.78% with mouse S180 sarcoma model (Table 3, 10 μmol/kg, ip). For the same molecule, the Average tumor weight in the data set on mouse S180 sarcoma model (setting [9]) came to 1.140 ± 0.437 g; with mouse S180 sarcoma model (Table 3, 2 μmol/kg, ip), 1.315 ± 0.338 g; in the data set with mouse S180 sarcoma model (Table 3, 5 μmol/kg, ip), 1.232 ± 0.102 g; in the data set on mouse S180 sarcoma model (Table 3, 10 μmol/kg, ip) it was 1.204 ± 0.438 g. Besides, the Water solubility entry in the data set “Water solubility” is reported as “poor water solubility”.

For `CS(=O)(=O)NCCNc1ccc([N+](=O)[O-])c2nonc12` [ZD-C, NBD-N-(2-aminoethyl)methanesulfonamide], the IC50 in data set [1] (HCT116, 48 h, Mean ± SD) is greater than 100 µM; in data set [2] (S180, 48 h, Mean ± SD), greater than 100 µM; in data set [3] (MCF-7, 48 h, Mean ± SD), greater than 100 µM; in data set [4] (LLC, Mean ± SD), greater than 100 µM; in [5] (A549, 48 h, Mean ± SD), greater than 100 µM; in data set [6] (U2Os, Mean ± SD), greater than 100 µM. The “Average tumor weight compared with Vehicle group (one-way analysis of variance)” value in the data set with mouse S180 sarcoma model (10 μmol/kg, ip) is listed as “different from that of Vehicle group”. The molecule further yielded a Tumor Inhibition Rate in the data set on mouse S180 sarcoma model (setting [9]) of 29.46%. In the data set with mouse S180 sarcoma model (setting [9]), this molecule gave an Average tumor weight of 1.260 ± 0.466 g.

In the data set on mouse S180 sarcoma model (setting [9]), `CN(C)c1ccc2cc(C(=O)NC(CCCNC(=N)CCl)C(=O)NCc3ccccc3)ccc2c1` (centres unmarked) [YW3-56, N-(1-(benzylamino)-5-(2-chlorooxalimide)-1-oxopentan-2-yl)-6-(dimethylamino)-2-naphthylamide, reference compound] returned a Tumor Inhibition Rate of 44.39% and an Average tumor weight of 0.994 ± 0.310 g. In addition, in the data set with mouse S180 sarcoma model (Table 3, 10 μmol/kg, iv), the “Tumor Inhibition Rate” value amounted to 44.38% and the Average tumor weight was found to be 0.954 ± 0.298 g.

With `O=C1NCCC[C@@H]1Nc1ccc([N+](=O)[O-])c2nonc12` [ZD-D, NBD-Orn(cycto)], the IC50 in data set [1] (HCT116, 48 h, Mean ± SD) is greater than 100 µM; in [2] (S180, 48 h, Mean ± SD), greater than 100 µM; in data set [3] (MCF-7, 48 h, Mean ± SD), greater than 100 µM; in data set [4] (LLC, Mean ± SD), greater than 100 µM; in [5] (A549, 48 h, Mean ± SD), greater than 100 µM; in data set [6] (U2Os, Mean ± SD) it was greater than 100 µM. The molecule also came in with a Tumor Inhibition Rate with mouse S180 sarcoma model (setting [9]) of 25.77%. The Average tumor weight in the data set with mouse S180 sarcoma model (setting [9]) worked out at 1.326 ± 0.318 g.

Consider `CC(C)C[C@H](Nc1ccc([N+](=O)[O-])c2nonc12)C(=O)N[C@H](C(=O)OCc1ccccc1)C(C)C` [ZD-B, NBD-LV-OBzl], for which the IC50 in data set [1] (HCT116, 48 h, Mean ± SD) is greater than 100 µM; in data set [2] (S180, 48 h, Mean ± SD), 74.4 ± 10.1 µM; in [4] (LLC, Mean ± SD), 96.5 ± 6.85 µM; in data set [5] (A549, 48 h, Mean ± SD) it was greater than 100 µM; in data set [6] (U2Os, Mean ± SD) it was 86.4 ± 5.3 µM. In the data set on mouse S180 sarcoma model (10 μmol/kg, ip), the “Anti-tumor growth activity (in words)” value is “most prominent activities”. In the data set with mouse S180 sarcoma model (10 μmol/kg, ip), the “Average tumor weight compared with Vehicle group (one-way analysis of variance)” value was “significantly different from that of Vehicle group”. The Tumor Inhibition Rate in the data set on mouse S180 sarcoma model (setting [9]) came out at 44.60%; in the data set on mouse S180 sarcoma model (Table 3, 2 μmol/kg, ip), 17.00%; in the data set with mouse S180 sarcoma model (Table 3, 5 μmol/kg, ip) it was 35.64%; with mouse S180 sarcoma model (Table 3, 10 μmol/kg, ip) it was 41.23%. Besides, the Average tumor weight with mouse S180 sarcoma model (setting [9]) was 0.990 ± 0.180 g; in the data set with mouse S180 sarcoma model (Table 3, 2 μmol/kg, ip) it was 1.424 ± 0.434 g; with mouse S180 sarcoma model (Table 3, 5 μmol/kg, ip), 1.104 ± 0.218 g; in the data set on mouse S180 sarcoma model (Table 3, 10 μmol/kg, ip) it was 1.008 ± 0.472 g. The Water solubility entry in the data set “Water solubility” is “poor water solubility”. Also, the “Nanomorphology (shape)” value in data set [7] (TEM and SEM) is listed as “shape of a strip”. The “Hydration particle size change” value in data set [7] (pH=2.0, measured continuously for 72 h) is “great change in particle size”; in data set [7] (pH=5.5, measured continuously for 72 h), “great change in particle size”. Besides, the Hydration particle size result in data set [7] (pH=7.0 versus other pH values, 72 h) is given as “smallest particle size at pH=7.0”. The Zeta potential change result in data set [7] (solutions at different pH values, measured continuously for 72 h) is reported as “neither ZD-B nor ZD-E-1 had an obvious change”.

As to `NCCCC[C@H](Nc1ccc([N+](=O)[O-])c2nonc12)C(=O)NCc1ccccc1` [ZD-F, NBD-Lys(HCl)-NBzl], the IC50 in [1] (HCT116, 48 h, Mean ± SD) is greater than 100 µM; in [2] (S180, 48 h, Mean ± SD), greater than 100 µM; in data set [3] (MCF-7, 48 h, Mean ± SD), greater than 100 µM; in data set [4] (LLC, Mean ± SD) it was greater than 100 µM; in [5] (A549, 48 h, Mean ± SD), greater than 100 µM; in [6] (U2Os, Mean ± SD) it was greater than 100 µM.
